From article PMC2667786 (Structure (London, England : 1993), 2009)

Molecular target: T1, AvPCP (Trichormus variabilis, UniProt Q3M7N3)
T1 sequence (Q3M7N3 1-234): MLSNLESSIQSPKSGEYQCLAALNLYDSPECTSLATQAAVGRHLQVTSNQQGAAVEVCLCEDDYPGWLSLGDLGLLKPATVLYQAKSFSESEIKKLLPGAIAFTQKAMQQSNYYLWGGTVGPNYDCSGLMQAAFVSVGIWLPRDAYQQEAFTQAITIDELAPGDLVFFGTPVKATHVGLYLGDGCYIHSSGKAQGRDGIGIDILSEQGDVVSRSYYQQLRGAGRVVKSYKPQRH
Assay: hydrolysis of murein tripeptide to Ala-γ-D-Glu and DAP
Format: biochemical
Details: assay details only in Supplemental Data

SMILES: C[C@H](N)C(=O)N[C@H](CCC(=O)N[C@@H](CCC[C@@H](N)C(=O)O)C(=O)O)C(=O)O [Ala-γ-D-Glu-DAP]
- hydrolysis of murein tripeptide to Ala-γ-D-Glu and DAP: AvPCP can, indeed, hydrolyze Ala-γ-D-Glu-DAP to Ala-γ-D-Glu and DAP
